Data set [1] is described as follows: Cytotoxicity against human HepG2 cells cultured as C3a spheroids assessed as reduction in cell viability. In kind it is toxicity, cell-based.
The nature of data set [2]: Cytotoxicity against human HepG2 cells cultured under glucose condition assessed as reduction in cell viability. The format is toxicity, cell-based.
Data set [3] addresses T1, Relaxin receptor 1 (Homo sapiens, UniProt Q9HBX9).
T1 sequence (Q9HBX9 whole entry): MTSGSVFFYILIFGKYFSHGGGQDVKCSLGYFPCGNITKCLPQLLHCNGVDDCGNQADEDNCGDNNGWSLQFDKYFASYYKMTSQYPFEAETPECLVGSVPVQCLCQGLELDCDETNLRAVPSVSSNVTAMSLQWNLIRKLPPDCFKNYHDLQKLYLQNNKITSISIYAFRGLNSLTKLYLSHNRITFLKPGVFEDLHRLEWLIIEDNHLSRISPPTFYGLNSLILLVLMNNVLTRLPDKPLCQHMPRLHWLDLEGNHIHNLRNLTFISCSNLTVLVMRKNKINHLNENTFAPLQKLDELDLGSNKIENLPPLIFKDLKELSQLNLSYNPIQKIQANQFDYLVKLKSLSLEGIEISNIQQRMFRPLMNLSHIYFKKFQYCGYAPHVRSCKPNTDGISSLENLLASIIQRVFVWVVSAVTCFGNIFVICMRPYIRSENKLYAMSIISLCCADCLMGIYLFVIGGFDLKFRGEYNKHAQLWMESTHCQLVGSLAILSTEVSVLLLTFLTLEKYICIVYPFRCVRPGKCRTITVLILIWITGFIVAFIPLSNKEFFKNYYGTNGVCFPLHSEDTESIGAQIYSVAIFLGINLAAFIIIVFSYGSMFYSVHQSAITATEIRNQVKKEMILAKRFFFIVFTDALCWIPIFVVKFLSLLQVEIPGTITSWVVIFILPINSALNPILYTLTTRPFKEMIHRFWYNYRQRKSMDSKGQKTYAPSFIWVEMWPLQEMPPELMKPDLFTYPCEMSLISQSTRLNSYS
Description: Agonist activity at human RXFP1 expressed in T-Rex-CHO-K1 cells assessed as stimulation of cAMP production incubated for 45 mins by HTRF assay. The format is functional, cell-based. Background: Changes in cAMP serve as a functional read-out for many G protein-coupled receptors.

Data set [4] has as its target T2, Relaxin receptor 1 (Rattus norvegicus, UniProt Q6R6I6).
T2 sequence (Q6R6I6 whole entry): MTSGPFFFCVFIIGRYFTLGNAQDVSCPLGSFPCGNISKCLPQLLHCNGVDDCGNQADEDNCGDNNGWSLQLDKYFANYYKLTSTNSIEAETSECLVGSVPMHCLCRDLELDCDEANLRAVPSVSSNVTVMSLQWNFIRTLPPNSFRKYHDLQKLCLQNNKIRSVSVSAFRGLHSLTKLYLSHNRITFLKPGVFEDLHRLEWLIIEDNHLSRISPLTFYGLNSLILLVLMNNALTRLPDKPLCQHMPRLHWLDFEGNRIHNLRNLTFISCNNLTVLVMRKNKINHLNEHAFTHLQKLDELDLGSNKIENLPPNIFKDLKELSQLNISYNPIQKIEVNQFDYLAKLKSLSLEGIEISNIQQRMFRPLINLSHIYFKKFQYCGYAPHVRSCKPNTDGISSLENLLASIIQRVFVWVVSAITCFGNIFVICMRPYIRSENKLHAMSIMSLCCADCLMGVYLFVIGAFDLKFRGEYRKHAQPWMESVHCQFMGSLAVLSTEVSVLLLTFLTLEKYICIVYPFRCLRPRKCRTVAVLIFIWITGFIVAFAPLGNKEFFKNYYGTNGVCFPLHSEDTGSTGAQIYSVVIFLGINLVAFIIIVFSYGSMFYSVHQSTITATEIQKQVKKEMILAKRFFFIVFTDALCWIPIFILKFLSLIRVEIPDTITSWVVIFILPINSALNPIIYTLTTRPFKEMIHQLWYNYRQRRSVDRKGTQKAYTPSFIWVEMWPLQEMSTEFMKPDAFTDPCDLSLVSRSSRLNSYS
Description: Agonist activity at rat RXFP1 expressed in T-Rex-CHO-K1 cells assessed as stimulation of cAMP production incubated for 60 mins by HTRF assay. In kind it is functional, cell-based.

For data set [5], the target named is T3, Relaxin receptor 1 (Rattus norvegicus) (UniProt Q6R6I6).
T3 sequence (whole entry): T2 sequence (Q6R6I6 whole entry)
Description: In vivo agonist activity at RXFP1 in Sprague-Dawley rat assessed as hemodynamic effect by measuring increase in blood pressure at 1.5 mg/kg, iv administered via bolus followed by 9.0 mg/kg, iv administered via infusion for 3 hrs and measured 1 hrs post washout. In kind it is functional, organism-based.

Data set [6] is described as follows: Metabolic stability in Han Wistar rat hepatocytes assessed as unbound intrinsic clearance measured […] at 1 uM after 120 mins by LC-MS/MS analysis. To be noted: 2 h. In kind it is ADME, cell-based, Hepatocyte.
For data set [7], the target named is Bile salt export pump (Homo sapiens, UniProt O95342). Description: Inhibition of BSEP (unknown origin) by membrane vesicle assay. In kind it is toxicity.
Bile salt export pump, sequence (O95342 whole entry, the tested form may be a part): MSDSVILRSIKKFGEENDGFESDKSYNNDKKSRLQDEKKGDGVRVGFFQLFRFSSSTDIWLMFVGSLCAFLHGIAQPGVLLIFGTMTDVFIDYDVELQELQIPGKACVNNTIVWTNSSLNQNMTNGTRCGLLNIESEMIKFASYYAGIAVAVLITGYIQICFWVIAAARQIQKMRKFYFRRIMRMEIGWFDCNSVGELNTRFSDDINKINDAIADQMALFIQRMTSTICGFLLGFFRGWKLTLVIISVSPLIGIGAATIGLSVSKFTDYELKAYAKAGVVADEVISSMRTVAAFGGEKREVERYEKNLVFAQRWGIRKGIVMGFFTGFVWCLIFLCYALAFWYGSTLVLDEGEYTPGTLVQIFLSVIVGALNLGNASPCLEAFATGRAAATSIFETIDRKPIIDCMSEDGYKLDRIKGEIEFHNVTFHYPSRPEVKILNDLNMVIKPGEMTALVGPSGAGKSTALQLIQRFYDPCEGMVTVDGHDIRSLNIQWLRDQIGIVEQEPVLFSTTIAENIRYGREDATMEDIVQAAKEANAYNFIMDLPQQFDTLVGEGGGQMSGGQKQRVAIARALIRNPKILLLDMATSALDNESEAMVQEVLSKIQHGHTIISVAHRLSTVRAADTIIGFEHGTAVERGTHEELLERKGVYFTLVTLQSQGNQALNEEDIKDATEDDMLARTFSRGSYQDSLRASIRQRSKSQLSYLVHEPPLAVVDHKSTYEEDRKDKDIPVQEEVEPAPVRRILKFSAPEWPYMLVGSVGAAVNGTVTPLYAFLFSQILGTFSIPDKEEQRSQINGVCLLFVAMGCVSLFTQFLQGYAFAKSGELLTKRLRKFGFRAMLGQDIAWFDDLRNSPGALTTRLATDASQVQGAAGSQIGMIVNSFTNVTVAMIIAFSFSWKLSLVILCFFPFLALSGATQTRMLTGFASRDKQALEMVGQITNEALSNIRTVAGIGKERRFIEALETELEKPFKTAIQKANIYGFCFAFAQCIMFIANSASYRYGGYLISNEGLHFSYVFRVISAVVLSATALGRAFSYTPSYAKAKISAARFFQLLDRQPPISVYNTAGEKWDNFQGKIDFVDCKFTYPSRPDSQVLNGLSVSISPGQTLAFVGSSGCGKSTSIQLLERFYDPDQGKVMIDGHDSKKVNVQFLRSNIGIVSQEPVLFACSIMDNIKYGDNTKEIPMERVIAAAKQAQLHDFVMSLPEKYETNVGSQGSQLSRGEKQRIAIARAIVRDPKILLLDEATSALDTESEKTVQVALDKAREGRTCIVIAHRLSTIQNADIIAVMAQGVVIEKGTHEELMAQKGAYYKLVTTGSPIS
The nature of data set [8]: Unbound Cmax in Sprague-Dawley rat at 1.5 mg/kg, iv administered via bolus followed by 9.0 mg/kg, iv administered via infusion for 3 hrs and measured 1 hrs post washout by LC-MS/MS analysis. In kind it is ADME, organism-based. The settings on record: in vivo.
A short description of data set [9]: Solubility of compound in FaSSIF at pH 6.5. In kind it is ADME.
In data set [10] the target is Voltage-gated inwardly rectifying potassium channel KCNH2 (Homo sapiens, UniProt Q12809). Description: Inhibition of human ERG by automated electrophysiology recording. The format is toxicity.
Voltage-gated inwardly rectifying potassium channel KCNH2, sequence (Q12809 whole entry): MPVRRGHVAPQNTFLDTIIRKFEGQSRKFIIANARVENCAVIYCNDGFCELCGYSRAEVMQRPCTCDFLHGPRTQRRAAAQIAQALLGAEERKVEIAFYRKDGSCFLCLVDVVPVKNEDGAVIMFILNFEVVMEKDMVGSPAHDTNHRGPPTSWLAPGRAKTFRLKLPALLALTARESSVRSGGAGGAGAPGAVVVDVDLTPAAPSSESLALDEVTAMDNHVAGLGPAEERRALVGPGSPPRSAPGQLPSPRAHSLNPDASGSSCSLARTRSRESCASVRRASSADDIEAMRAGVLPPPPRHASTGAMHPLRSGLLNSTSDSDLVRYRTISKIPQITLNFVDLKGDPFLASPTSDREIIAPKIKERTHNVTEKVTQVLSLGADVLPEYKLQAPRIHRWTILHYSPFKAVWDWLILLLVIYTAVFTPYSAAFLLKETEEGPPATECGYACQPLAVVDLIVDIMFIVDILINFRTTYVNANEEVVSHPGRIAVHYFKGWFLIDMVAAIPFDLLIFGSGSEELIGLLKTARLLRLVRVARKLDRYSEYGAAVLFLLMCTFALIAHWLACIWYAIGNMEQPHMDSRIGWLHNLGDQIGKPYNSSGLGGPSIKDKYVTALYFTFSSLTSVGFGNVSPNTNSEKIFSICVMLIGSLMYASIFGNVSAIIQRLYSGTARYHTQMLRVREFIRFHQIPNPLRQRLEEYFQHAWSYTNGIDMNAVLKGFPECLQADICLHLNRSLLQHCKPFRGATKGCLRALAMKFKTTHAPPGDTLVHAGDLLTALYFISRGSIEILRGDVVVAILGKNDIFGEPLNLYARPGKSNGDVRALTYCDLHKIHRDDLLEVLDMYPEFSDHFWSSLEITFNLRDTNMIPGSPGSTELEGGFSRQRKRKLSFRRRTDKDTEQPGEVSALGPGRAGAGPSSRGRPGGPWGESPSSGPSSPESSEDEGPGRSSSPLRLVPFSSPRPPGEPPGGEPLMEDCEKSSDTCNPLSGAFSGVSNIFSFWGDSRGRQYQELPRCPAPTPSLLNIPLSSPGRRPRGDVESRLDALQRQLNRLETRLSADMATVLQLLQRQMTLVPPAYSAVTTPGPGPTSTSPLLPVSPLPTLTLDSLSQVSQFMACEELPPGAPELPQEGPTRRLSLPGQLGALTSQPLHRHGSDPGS
A short description of data set [11]: Lipophilicity, logD of the compound in 1-octanol and phosphate buffer at pH 7.4 incubated for 3 hrs by shake flask method based LC/MS/MS analysis. The format is physicochemical. To be noted: 1-octanol/phosphate buffer, pH 7.4.

Converted amounts (≈) assume the structure as drawn. The source made the active and inactive calls. The rule behind the calls is not given here.

By IC50 is commonly meant the concentration that gives 50% inhibition. As a reminder, the EC50 is the concentration giving half of the maximal effect. The term solubility denotes the dissolved amount per volume that the medium holds. Broadly, the logD is the decadic logarithm of the distribution of all forms, ionised or not, between an organic phase and buffer at a given pH. A high value points to a more lipophilic compound.

On to `COc1cc(F)c(O[C@H]2CC[C@@](C)(C(=O)O)CC2)cc1C(=O)N[C@@H]1[C@H]2CC[C@H](C2)[C@@H]1C(=O)Nc1ccc(F)c(S(F)(F)(F)(F)F)c1`, for which the half-maximal inhibitory concentration (IC50) is 17 µM in data set [1], 68 µM in data set [2], 23 µM in [7] and over 39 µM in [10]. The EC50 is 0.000398 µM in data set [3] and 0.2 µM in data set [4]. In addition, the result in data set [5] was Active. The CL free in data set [6] is 2.4 µL/min. Further, the fCmax in [8] was 10 nM. For the same compound, the solubility in [9] was determined as 6.3 µM (≈ 4.3 µg/mL). Further, the log distribution coefficient (logD) at 3 h in data set [11] was 4.9.

Values taken from ChEMBL document CHEMBL5518235, “Identification of Novel Series of Potent and Selective Relaxin Family Peptide Receptor 1 (RXFP1) Agonists” (J Med Chem, 2024).
